pKd: −log10 of the molar value.
What was measured:
[1] = biological target: TEAD1-Dendra2 fusion protein (mouse) (UniProt P30051)
[2] = biological target: TEAD1-Dendra2 fusion protein (mouse) (UniProt P30051); remark: listed apart in the source
[3] = biological target: His-TEAD1[211-427] (recombinant murine TEAD1 residues 211-427 with polyhistidine tag, from E. coli) (mouse) (UniProt P30051); experiment: photonic crystal nanobeam sensor, His-TEAD1[211-427] immobilized, curve fitted to the Langmuir equation
[4] = tested on: VGLL4-mediated TEAD1 degradation; experiment: VGLL4-mediated TEAD1 degradation in co-transfected 293T cells (immunoblot); format: cell-based; conditions: 293T cells co-transfected with TEAD1 and VGLL4, inhibitors for 6 hours
Protocol: HA-VGLL4 was cloned downstream of TetO promoter. pEF1α::rtTA was used to express rtTA. The expression of HA-VGLL4 will be activated in the presence of both Dox and rtTA. […] 293T cells were co-transfected with pEF1α::rtTA and pTetO::HA-Vgll4. Twenty-four (24) hours after transfection, cells were treated with […] Dox for different hours. Immunoblotting was carried out to detect the expression of HA-VGLL4. […] Mouse Tead1 specific primers were used to measure relative Tead1-Dendra2 mRNA level by qRT-PCR. FIG. 8D depicts an immunoblot showing TEAD1 degradation is dependent on cysteine proteases and is independent of the proteasome. 293T cells were first co-transfected with TEAD1^fb and Vgll4-GFP plasmids. 1 day after transfection, cells were treated with indicated inhibitors for 6 hours. Dimethyl sulfoxide (DMSO, 0.1%) was used as control vehicle. β-tubulin was used as loading control.
Major pathways for protein degradation can include the proteasome and cysteine, serine, and threonine peptidases. To determine if these candidate pathways are involved in VGLL4-mediated TEAD1 degradation, the effect of MG132 (a universal proteasome inhibitor (Lee et al., 1998)), leupeptin (an inhibitor of serine and threonine peptidases (Umezawa, 1976)) and E64 (an inhibitor specific to cysteine proteases (Barrett et al., 1982)) on VGLL4-mediated TEAD1 degradation was studied.

TEAD1-Dendra2 = experiment: pulse-labeled TEAD1-Dendra2 live cell imaging in 293T cells; format: cell-based; conditions: photoconverted TEAD1-Dendra2, Dox-induced VGLL4
Protocol: (§1) FIG. 7A is an immunoblot showing VGLL4 overexpression decreased TEAD1 protein level. Different doses of TEAD1 plasmids (indicated in μg) were co-transfected with 1.6 μg VGLL4-GFP plasmid. Cells were collected for western blot 24 hours after transfection. FIGS. 7B-7C show the generation and validation of TEAD1-Dendra2 construct. Tead1-Dendra2 plasmid was transfected into 293T cells. Western blot confirmed expression of TEAD1-Dendra2 fusion protein (FIG. 7B). TEAD1-Dendra2 merge fusion protein was green before illumination with 405 nm light. […] Cells were analyzed at the indicated time points. […] FIG. 7E is a graph showing the quantification of TEAD1-Dendra2 protein levels in FIG. 7D. *P<0.05. n=3. […] Relative red fluorescence intensity (RFI) was monitored for 20 minutes by taking one image per minute. n=6. […] Twenty-four (24) hours after transfection, cells were treated with Dox for the indicated number of hours, when cell extracts were analyzed for Firefly and Renilla luciferase activity. […]
DOX-induced VGLL4 expression was combined with live cell imaging of TEAD1-Dendra2 to specifically probe the effect of VGLL4 on TEAD1 stability. […] In the absence of VGLL4, TEAD1-Dendra2 protein fluorescence intensity dropped by 10% during the first 10 minutes, and then became relatively stable. […]

[5] = tested on: TEAD1-YAP transcriptional activity; experiment: 8xGTIIC-Luci luciferase reporter assay in 293T cells with DOX-induced VGLL4; format: cell-based
Protocol: as §1
The data indicates an additional mechanism, in which VGLL4 binding to TEAD1 promotes its degradation and thereby reduces the amount available to interact with YAP. To test additional mechanisms, the TEAD1 luciferase reporter 8xGTIIC-Luci (Dupont et al., 2011) was used as a read out of TEAD1-YAP transcriptional activity. […]

[6] = tested on: high salt diet induced heart failure; conditions: Cheng et al., 2008; cited from earlier work
myocardial infarction = conditions: Dong et al., 2007; cited from earlier work
[7] = clinical testing, Chen et al., 2013; cited from earlier work

Compound “HA-VGLL4 (doxycycline-inducible, pTetO::HA-VGLL4)” has a steady-state TEAD1-Dendra2 protein level after Dox (immunoblot) [1] of 50%, a red fluorescence intensity of photoconverted Dendra2 (time lapse imaging) (Dendra2) of 5% and a red fluorescence intensity of photoconverted TEAD1-Dendra2 (time lapse imaging) [2] of 18%.

In the case of “synthetic non-acetylated VGLL4 TDU domain peptide with V5 epitope (from UniProt Q14135-4)”, the pKd [3] was 8.51.

For CC(=O)N[C@@H](CC(C)C)C(=O)N[C@@H](CC(C)C)C(=O)N[C@H](C=O)CCCNC(=N)N [leupeptin], the “VGLL4-mediated reduction of TEAD1 steady-state levels” value [4] was “reduced VGLL4-mediated reduction of TEAD1 steady-state levels”.

In the case of CC(C)C[C@H](NC(=O)[C@H]1O[C@@H]1C(=O)O)C(=O)NCCCCN=C(N)N (relative stereo) [E64, L-trans-Epoxysuccinyl-leucylamido(4-guanidino)butane], the “VGLL4-mediated reduction of TEAD1 steady-state levels” value [4] was “reduced VGLL4-mediated reduction of TEAD1 steady-state levels”, the “destabilizing effect of VGLL4 on TEAD1-Dendra2” value (TEAD1-Dendra2) was “reduced the destabilizing effect of VGLL4 on TEAD1-Dendra2” and the “reduction of TEAD1 transcriptional activity caused by VGLL4 induction” value [5] was “did not completely abrogate”. For the same compound, the luciferase reporter activity ([5]; 8 hours after DOX treatment, P<0.05) was “significantly increased reporter activity”, the “high salt diet induced heart failure” value [6] was “attenuated high salt diet induced heart failure” and the “beneficial effect in myocardial infarction model” value (myocardial infarction) was “did not show a beneficial effect”.

In the case of CCOC(=O)[C@H]1O[C@@H]1C(=O)N[C@@H](CC(C)C)C(=O)NCCC(C)C [E64d], the safety profile [7] is given as “good safety profile”.
